Data on 10 compounds can be found in patent US12023308B2, “Agents for reversing toxic proteinopathies” (THE BROAD INSTITUTE, INC., priority 2019, dated 2024).

The subject of one series is IRE. The series is described as follows: RT-PCR analysis of XBP1 splicing in THP-treated P cells. It is filed as cell-based, human. The note with it: P cells treated with THP (100 nM). How it is done: XBP1 splicing was analyzed by standard RT-PCR. Briefly, RNA was isolated from patient cells using a RNeasy Mini Kit (74106, Qiagen). One μg of RNA was converted to cDNA using the SuperScript First-Strand Synthesis system for RT-PCR (11904-018, Invitrogen). The primer sequences used are as follows: Human XBP1 Forward Primer: 5′ TTACGAGAGAAAACTCATGGCC 3′ (SEQ ID NO: 12). Human XBP1 Reverse Primer: 5′ GGGTCCAAGTTGTCCAGAATGC 3′ (SEQ ID NO: 13). PCR was carried out on 3 μL of the resulting cDNA solution using the OneTaq Hot Start Master Mix (M0484S, NEB). Five μL of PCR product was run on a 2% agarose gel for 90 min at 150 V.

The subject of a further series is ATF6. Put plainly: Immunoblot of BiP in THP-treated P cells. In kind it is cell-based, human. To be noted: P cells treated with THP (100 nM). How it is done:
(§1) Cells were lysed in lysing buffer solution (9803, Cell Signaling Technology) containing protease inhibitors (05892791001, Roche) and phosphatase inhibitors (04906837001, Roche). Mouse kidney tissues were lysed by tissue homogenizer (Tissue-Tearo™, BioSpec Products) in lysing buffer solution containing inhibitors as above, followed by 20 min rocking at 4° C. and centrifugation at 16,000 g, 4° C. for 5 min. To normalize protein concentration, proteins in the supernatant of cells or of kidney lysates were quantified using the Pierce BCA Protein Assay Kit (23225, Thermo Fisher Scientific®). Normalized protein lysates were then mixed with NuPAGE LDS sample buffer (NP0008, Thermo Scientific) and NuPAGE reducing agent (NP0004, Thermo Scientific) and heated to 75° C. for 10 min prior to SDS-PAGE gel electrophoresis using NuPAGE Tris-Acetate SDS Running Buffer (LA0041, Thermo Scientific) or NuPAGE MES SDS running buffer (NP0002, Thermo Fisher Scientific®) depending on protein molecular weight of interest. Electrophoretically separated proteins were transferred to a nitrocellulose membrane (1704158, BioRad) using Trans-Blot® Turbo™ Blotting System (1704155, BioRad) following manufacturer's protocol. Membranes were blocked in 5% Nonfat Dry Milk (9999S, Cell Signaling Technology) in PBS with 0.1% Tween® 20 (PBS-T), and probed with primary antibody overnight at 4° C. […]
(In general: In western blotting, separated proteins are transferred to a membrane and probed.)

For series [1], the system named is MUC1-fs. Put plainly: Immunoblot analysis of MUC1-fs in P cells under pathway perturbations. It is filed as cell-based, human. The note with it: for effect on BRD-4780-mediated MUC1-fs clearance (immunoblot): with BRD-4780 (5 μM).
Description: Cells were lysed in lysing buffer solution (9803, Cell Signaling Technology) containing protease inhibitors (05892791001, Roche) and phosphatase inhibitors (04906837001, Roche). […] To normalize protein concentration, proteins in the supernatant of cells or of kidney lysates were quantified using the Pierce BCA Protein Assay Kit (23225, Thermo Fisher Scientific®). Normalized protein lysates were then mixed with NuPAGE LDS sample buffer (NP0008, Thermo Scientific) and NuPAGE reducing agent (NP0004, Thermo Scientific) and heated to 75° C. for 10 min prior to SDS-PAGE gel electrophoresis using NuPAGE Tris-Acetate SDS Running Buffer (LA0041, Thermo Scientific) or NuPAGE MES SDS running buffer (NP0002, Thermo Fisher Scientific®) depending on protein molecular weight of interest. Electrophoretically separated proteins were transferred to a nitrocellulose membrane (1704158, BioRad) using Trans-Blot® Turbo™ Blotting System (1704155, BioRad) following manufacturer's protocol. Membranes were blocked in 5% Nonfat Dry Milk (9999S, Cell Signaling Technology) in PBS with 0.1% Tween® 20 (PBS-T), and probed with primary antibody overnight at 4° C. Following three washes with PBS-T, the membranes were incubated with secondary antibody for 1 hr at room temperature, washed three more times in PBS-T, and incubated with Super Signal West Dura (34076, Thermo Fisher Scientific®) or Super Signal West Pico (34087, Thermo Fisher Scientific®) and immunoreactive bands were imaged by G:BOX Chemi XT4 (G:BOX-CHEMI-XT4, Syngene).
Detection of MUC1-fs in P cells at baseline and following secretory pathway perturbations was performed using immunoblot and IF analyses. For immunoblot experiments (FIGS. 5E and 13D), P cells were grown in 6-well plates to high confluence. For IF experiments (FIGS. 5B-5D and 13A-13C), P cells were plated in 384-well plates at 12,000 cells/well. Following 24 hr, cells were treated with 5 μM BRD-4780 or DMSO alone, or in combination with 100 nM Bafilomycin A (B1793, Sigma-Aldrich), or 200 ng/mL Brefeldin A (B7651, Sigma-Aldrich) for a maximum period of 24 hr as indicated. For TMED9 or Nischarin depletion experiments, transduced/transfected P cells were plated either in 96-well plates at 60,000 cells/well for IF (FIGS. 6C, 6D and 14B), or grown in 6-well plates to high confluence for immunoblot detection (FIGS. 6B and 14C). Cells were then treated with 5 μM BRD-4780 or DMSO for 24 hr (for IF detection) or 72 hr (for immunoblot analysis) and were processed accordingly.
The next series relates to total MUC1 mRNA. The series is described as follows: MUC1 transcription assay (RT-PCR profiling screen) in P cells. To be noted: preliminary in vitro experiments in P cells. It is filed as cell-based, human. How it is done: qPCR was performed using a previously described protocol (Bittker, 2012). P cells seeded at 2000 cells/well in 384-well, clear bottom, white wall plates were grown for 24 hr, then treated with profiling compounds transferred by pinning to duplicate plates. JQ1 (250 nM) and DMSO were used for controls as above. After 24 hr, cells were washed and cDNAs were made using ABI Cells-to-Ct kit (Thermo Fisher Scientific®, Waltham, Mass.). MUC1 and HMBS delta Cp values were determined using a Roche LightCycler 480 Instrument and TaqMan probes for MUC1 FAM (4351368 assay ID Hs00159357_m1) and HMBS VIC (4448486-assay ID Hs00609297_m1) (Thermo Fisher Scientific®, Waltham, Mass.), in 5 μL reactions. The fold change effect of the compounds on total MUC1 mRNA was normalized to JQ1 and DMSO controls, as described above.

For series [2], the system named is MUC1-fs. The series is described as follows: MUC1-fs subcellular distribution (co-localization IF) in P cells. It is filed as cell-based, human.
Protocol: Cell nuclei were first identified using Hoechst staining, and cell number was calculated. Cytoplasmic regions were then detected around each nucleus based on combined channels. The cells from the edge of the field were eliminated from the analysis. For the quantification of protein abundance, the total signal intensity value for each antibody was calculated separately in the cell cytoplasm and the average signal per cell was calculated for each well. For quantitation of MUC1-fs cellular distribution and trafficking, the analysis was performed as described in FIG. 13A using the “spot” identification feature for the detection of MUC1-fs and the different organelles.
Detection of MUC1-fs in P cells at baseline and following secretory pathway perturbations was performed using immunoblot and IF analyses. […] For IF experiments (FIGS. 5B-5D and 13A-13C), P cells were plated in 384-well plates at 12,000 cells/well.
Another series has as its system PERK. The series is described as follows: Immunoblot of eIF2a phosphorylation in P cells. It is filed as cell-based, human. How it is done: as §1
Series [3] in a line: Dose response exposure PK study in male 129-ELITE mice. In kind it is in vivo, mouse. The note with it: single p.o. doses. Here is the method: 4) A pharmacokinetic study was performed by Charles River Labs (CRL) (Worcester, Mass., USA) in fed male 129-ELITE mice (study EF-0024-DA-MI) to determine the dose response exposure of BRD-4780, BRD-1365 and BRD-7709 in plasma, kidney, liver and eye. Brain exposure to BRD-4780 at 30 mg/kg was also evaluated A single dose of BRD-4780 was administered at 30.0 mg/kg or 100 mg/kg orally (p.o) in a clear solution of 5% dextrose in water (D5W). For BRD-1365 and BRD-7709, a single dose of either compound was administered at 10.0 mg/kg, 30.0 mg/kg, 50.0 mg/kg or 100 mg/kg orally (p.o) in a clear solution of 5% dextrose in water (D5W). Blood, kidney, liver and eye tissue were collected from n=3 mice per dose group at six time points post p.o. dose administration (1, 2, 6, 10, 16 and 24 hours) with all three compounds. Brain tissue was collected from n=3 mice per dose group at six time points post p.o. dose administration (1, 2, 6, 10, 16 and 24 hours) with BRD-4780 at 30 mg/kg. Plasma obtained by centrifugation and tissue fragments were homogenized. Plasma and tissue drug concentration was determined by LC-MS/MS and reported as drug concentration in ng/mL for plasma and ng/mg for kidney, liver and eye tissue, plotted as the mean±standard deviation concentration for males for BRD-4780 ([…]), BRD-1365 (FIG. 11K) and BRD-7709 (FIG. 11M). Standard pharmacokinetic parameters were calculated for males for BRD-4780 ([…]), BRD-1365 (FIG. 11O) and BRD-7709 (FIG. 11P).

The test system of series [4] is MUC1-fs. Put plainly: MUC1-fs immunofluorescence high-content imaging assay in P cells. It is filed as cell-based, human.
Protocol: Cells grown on CellCarrier-96 or -384 well Ultra microplates (PerkinElmer) were fixed 10 min in PBS containing 4% PFA (Electron Microscopy Sciences), permeabilized 15 min in 0.5% Triton X100 (X100-100ML, Sigma-Aldrich), blocked for 1 hr in blocking reagent (100 mM Tris HCL pH8; 150 mM NaCL; 5 g/L Blocking Reagent [11096176001, Roche]) and treated for 1 hr with primary antibodies diluted in blocking reagent (1:500, monoclonal Fab-A-VSH anti-fsMUC1, AbD22655.2, Bio-Rad; 1:2000, monoclonal Mouse anti-MUC1 (CD227), 60137, Stemcell Technologies; 1:200, polyclonal, Mouse anti-GM130, ab169276, Abcam; 1:100, polyclonal, Rabbit anti-TMED9, 216201-AP, Proteintech; 1:800, polyclonal, Rabbit anti-SEC31A, 17913-1-AP, Proteintech; 1:400, monoclonal, Rabbit anti-EEA1 (C45B10), 3288S, Cell signaling technology; 1:100, polyclonal, Rabbit anti-ERGIC-53, E1031, Sigma-Aldrich; 1:400, monoclonal, Mouse anti-LAMP1 (D401S), 15665, Cell signaling technology; 1:1000, polyclonal, Rabbit anti-Calnexin, ab22595, Abcam; 1:2000, monoclonal, Rabbit anti-GM130 (D6B1) XP, 12480, Cell signaling technology; 1:200, monoclonal, Rabbit anti TNG46, ab50595, Abcam; 1:100, monoclonal, Rabbit anti-Rab7 (D95F2) XP, 9367, Cell signaling technology; 1:100, monoclonal, Rabbit anti-Rab11 (D4F5) XP, 5589, Cell signaling technology). Fixed, stained cells were washed three times in PBS and incubated for 1 hr with secondary antibodies in blocking solution (1:500, Alexa Fluor 488® Goat anti-Mouse IgG, A-11029, Thermo Fisher Scientific®; 1:500, Alexa Fluor 647® F(ab′)2-Goat anti-Rabbit IgG, A21246, Thermo Fisher Scientific®; 1:2000, Hoechst 33342, H3570, Thermo Fisher Scientific®), then washed three times in PBS and imaged.
Cell nuclei were first identified using Hoechst staining, and cell number was calculated. Cytoplasmic regions were then detected around each nucleus based on combined channels. The cells from the edge of the field were eliminated from the analysis. For the quantification of protein abundance, the total signal intensity value for each antibody was calculated separately in the cell cytoplasm and the average signal per cell was calculated for each well.
P cells were seeded 24 hr prior to compound treatment at a density of 12,000 cells/well in 384 well Cell Carrier Ultra plates (6057308, Perkin Elmer), pre-coated with 0.25 mg/mL Synthemax II SC Substrate (3535, Corning). Compounds of the repurposing library set (Corsello et al., 2017) were used at 5 doses (35, 3.5, 0.35, 0.035 and 0.0035 μM) for the primary screen and 10 doses (16, 5.6, 1.8, 0.6, 0.21, 0.07, 0.02, 0.008, 0.002 and 0.0008 μM) for the following screens. The compounds, in two replicates, were transferred from compound source plates to the cell plates using the HighRes Pin Tool. […] After 48 hr incubation, cells were fixed for 20 min in 4% PFA (Electron Microscopy Sciences) in PBS, washed twice, then permeabilized (10 min) with 0.5% Triton-X100 (X100-100ML, Sigma-Aldrich) in PBS and washed once more. Cells were blocked for 10 min at RT with Blocking solution (100 mM Tris HCL pH8; 150 mM NaCL; 5 g/L Blocking Reagent [11096176001, Roche]), then incubated 90 min at RT with one of the following primary antibodies in Roche Blocking solution: 1:500, monoclonal Fab-A-VSH anti-MUC1-fs, AbD22655.2, Bio-Rad; 1:2000, monoclonal mouse anti-MUC1 (214D4), 05-652-KC, Millipore; 1:1000, monoclonal, Rabbit anti-GM130 (D6B1) XP, 12480, Cell signaling technology. […]
The subject of series [5] is P cells. Put plainly: THP-induced apoptosis (caspase 3/7) in N and P cells. In kind it is cell-based, human. To be noted: P cells compared to N cells, 72 hour.
Protocol: To study apoptosis and cell death in N and P cells, 384 well Cell Carrier Ultra plates (6057308, Perkin Elmer), pre-coated with 0.25 mg/mL Synthemax II SC Substrate (3535, Corning) were used. […] CellEvent Caspase-3/7 Green Detection Reagent (C10423, Thermo Fisher Scientific®) and DRAQ7 (DR71000, Biostatus) were used at 1:5000 to monitor apoptosis and cell death respectively. Cells were imaged daily during 4 days to monitor viability and image analysis was performed as described below. For rescue experiments, P cells were plated on 96 well Cell Carrier Ultra microplates (6055302, Perkin Elmer) at 30,000 cells/well and cultured for 24 hr. […]
Caspase 3/7 activation and/or DRAQ7 staining were used to calculate the fraction of cells going through apoptosis and/or cell death, respectively. Single cells were first identified using the digital phase contrast channel and cell number was calculated. Fluorescence intensities were then measured and the threshold for Caspase 3/7 and DRAQ7 positive staining was determined. As an output, the fraction of live (neither caspase3/7 nor DRAQ7 signal detected), apoptotic (caspase3/7 positive) or dead cells (DRAQ7 positive) was calculated in each well at a particular time point.
Cell viability was determined using caspase activation as described above.
Series [6] concerns P cells. The series is described as follows: P cell viability upon THP treatment (live imaging, rescue). In kind it is cell-based, human. The note with it: Homo sapiens; DMSO pre-treatment, 5 days THP.
Protocol: To study apoptosis and cell death in N and P cells, 384 well Cell Carrier Ultra plates (6057308, Perkin Elmer), pre-coated with 0.25 mg/mL Synthemax II SC Substrate (3535, Corning) were used. […] CellEvent Caspase-3/7 Green Detection Reagent (C10423, Thermo Fisher Scientific®) and DRAQ7 (DR71000, Biostatus) were used at 1:5000 to monitor apoptosis and cell death respectively. Cells were imaged daily during 4 days to monitor viability and image analysis was performed as described below. For rescue experiments, P cells were plated on 96 well Cell Carrier Ultra microplates (6055302, Perkin Elmer) at 30,000 cells/well and cultured for 24 hr. BRD-4780 (5 μM) was applied as a pretreatment for 48 hr prior to thapsigargin exposure and throughout the experiment. Thapsigargin was applied at increasing doses and the plates were imaged daily thereafter.
For the measurement of P cell rescue from THP-induced cell death by BRD-4780 (FIGS. 3I and 3J), no dyes were added to avoid any influence on cell growth. Digital phase contrast images were used for cell identification and count, and autofluorescence in the far-red channel was used for detection of dead cells. Cells with no autofluorescence were identified and calculated as live cell.
P cells were seeded 12 hr prior to profiling compound treatment at a density of 12,000 cells/well in 384 well Cell Carrier Ultra plates (6057308, Perkin Elmer), pre-coated with 0.25 mg/mL Synthemax II SC Substrate (3535, Corning). After 24 hr, CellEvent Caspase-3/7 Green Detection Reagent (C10423, Thermo Fisher Scientific®) and DRAQ7 (DR71000, Biostatus) were added at 1:5000 final dilution in the presence or absence of thapsigargin (100 nM). Cells were imaged daily during 7 days to monitor viability. Image acquisition and analysis was done as described above and viability was assessed as fraction of live cells at day 5 of thapsigargin treatment, and at the day 6 for DMSO.

pEC50, pIC50: −log10 of the molar value. Like-named read-outs stand apart in the source and are kept apart here.

For `Cc1cc(=O)oc2c(C=O)c(O)ccc12` [Compound 4μ8c], the “IRE activation (XBP1 splicing)” value in the series on IRE is listed as “dose-dependent inhibition of XBP1 splicing”.

On to PF-429242, for which, in the series on ATF6, the “ATF6 activation (BiP abundance)” value is on record as “dose-dependent reduction of BiP abundance”. The “MUC1-fs abundance (immunoblot)” value in the series with MUC1-fs [1] (10 μM, 24 hours) is given as “MUC1-fs accumulation”.

For the compound `Cc1sc2c(c1C)C(c1ccc(Cl)cc1)=N[C@@H](CC(=O)OC(C)(C)C)c1nnc(C)n1-2` [JQ1, reference compound], the “transcriptional suppression of both MUC1-fs and MUC1-wt” value in the series with total MUC1 mRNA is listed as 100%.

`CO/C1=C\C(C)=C\[C@@H](C)[C@@H](O)[C@@H](C)C/C(C)=C/C=C/[C@H](OC)[C@@H]([C@@H](C)[C@@H](O)[C@H](C)[C@@]2(O)C[C@@H](O)[C@H](C)[C@@H](C(C)C)O2)OC1=O` [Bafilomycin A]: the MUC1-fs subcellular distribution entry with MUC1-fs [2] is on record as “accumulation of MUC1-fs in the late secretory pathway”. Moreover, in the series with MUC1-fs [1], the “effect on BRD-4780-mediated MUC1-fs clearance (immunoblot)” value (“effect” below) is given as “prevented BRD-4780 from clearing mutant MUC1-fs”.

Turning to `Cc1cccc(CC(=O)N2CCc3c2ccc(-c2cn(C)c4ncnc(N)c24)c3F)n1` [GSK2656157], in the series with PERK, the “PERK activation (eIF2a phosphorylation)” value was “dose-dependent reduction of eIF2a phosphorylation”.

As to `CC(C)C[C@H](NC(=O)[C@H](Cc1ccccc1)NC(=O)c1cnccn1)B(O)O` [Bortezomib], the “effect” value in the series on MUC1-fs [1] is “did not affect MUC1-fs removal by BRD-4780”.

Regarding `CC(C)[C@@H]1[C@H]2CC[C@H](C2)[C@H]1N` (single isomer, unassigned) [BRD-7709], the “dose proportionality of AUC exposures” value in series [3] is “nearly dose proportional”. In addition, in the series with MUC1-fs [4] (high-content imaging assay), the “FS MUC1 cytoplasm EMax” value is −39%. Besides, in the series on MUC1-fs [4] (high-content imaging assay; read-out: FS MUC1 cytoplasm IC50), the pIC50 (usually −log10 of the IC50, conventionally taken in molar units) is 6.18.

Consider `CC(C)[C@H]1[C@@H]2CC[C@@H](C2)[C@@H]1N` (single isomer, unassigned) [BRD-1365], for which the “dose proportionality of AUC exposures” value in [3] is “not dose proportional”. Moreover, the “FS MUC1 cytoplasm EMax” value in the series on MUC1-fs [4] (high-content imaging assay) is −39%. Also, the pIC50 in the series on MUC1-fs [4] (read-out: FS MUC1 cytoplasm IC50; high-content imaging assay) is 6.14.

Regarding `C[C@H]1CCC/C=C/[C@@H]2C[C@H](O)C[C@H]2[C@H](O)/C=C/C(=O)O1` [BFA, Brefeldin A], the MUC1-fs subcellular distribution result in the series on MUC1-fs [2] is “MUC1-fs accumulation in the ER”. Moreover, the “effect” value with MUC1-fs [1] is “abrogated the effect of BRD-4780 on MUC1-fs clearance”.

As to `C/C=C(/C)C(=O)O[C@H]1C(C)=C2[C@H]([C@@H]1OC(=O)CCCCCCC)[C@@](C)(OC(C)=O)C[C@H](OC(=O)CCC)[C@@]1(O)[C@H]2OC(=O)[C@@]1(C)O` [THP, thapsigargin, reference compound], the “susceptibility of P cells to THP-induced apoptosis” value in the series on P cells [5] was “higher susceptibility to apoptosis compared to N cells”. The pEC50 (in general, −log10 of the EC50, conventionally taken in molar units) in the series on P cells [6] is 7.77.
